From ChEMBL document CHEMBL5465560, “Selectivity Literature for EUbOPEN Chemogenomic Library” (2024)
Each block holds one compound with its values, some of them ahead of it.

Experiments:
[1] = target: Dual specificity tyrosine-phosphorylation-regulated kinase 1B (Homo sapiens, UniProt Q9Y463); experiment: Selectivity interaction (KinomeScan (DiscoverX)) EUB0001049a DYRK1B; conditions: at 1 µM
[2] = target: Non-receptor tyrosine-protein kinase TYK2 (Homo sapiens, UniProt P29597); experiment: Selectivity interaction (ActivX KiNativ screen (kinase selectivity in THP-1 cell lysates)) EUB0000639a TYK2; assay type: subcellular; conditions: lysate, at 0.2 µM
[3] = target: Transcription intermediary factor 1-alpha (Homo sapiens) (UniProt O15164); experiment: Selectivity interaction (Bromodomain panel (DSF asssay)) EUB0000270b TRIM24
[4] = target: T1, Mitogen-activated protein kinase kinase kinase 7 (Homo sapiens) (UniProt O43318); experiment: Selectivity interaction (LanthaScreen Eu Kinase Binding Assay) EUB0001632a MAP3K7; conditions: at 10 µM
T1 sequence (whole entry): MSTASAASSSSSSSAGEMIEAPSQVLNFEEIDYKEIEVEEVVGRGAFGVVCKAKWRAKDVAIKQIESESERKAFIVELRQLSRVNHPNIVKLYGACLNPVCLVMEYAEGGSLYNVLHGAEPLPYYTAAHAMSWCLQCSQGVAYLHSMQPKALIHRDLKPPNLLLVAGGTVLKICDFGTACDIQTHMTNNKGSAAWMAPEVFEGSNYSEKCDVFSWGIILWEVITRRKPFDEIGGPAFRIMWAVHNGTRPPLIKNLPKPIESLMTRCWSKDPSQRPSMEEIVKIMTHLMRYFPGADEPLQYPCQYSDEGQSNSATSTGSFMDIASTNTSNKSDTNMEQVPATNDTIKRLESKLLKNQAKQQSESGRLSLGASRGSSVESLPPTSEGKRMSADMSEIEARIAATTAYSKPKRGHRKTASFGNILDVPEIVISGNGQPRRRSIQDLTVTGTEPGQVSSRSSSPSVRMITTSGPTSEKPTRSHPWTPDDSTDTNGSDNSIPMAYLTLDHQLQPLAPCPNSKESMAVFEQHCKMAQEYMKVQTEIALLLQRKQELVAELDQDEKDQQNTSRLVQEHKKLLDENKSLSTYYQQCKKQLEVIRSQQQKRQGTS

[5] = target: T2, Homeodomain-interacting protein kinase 4 (Homo sapiens) (UniProt Q8NE63); experiment: Selectivity interaction (Kinase panel (Z-LYTE Assay)) EUB0001632a HIPK4; conditions: at 10 µM
T2 sequence (whole entry): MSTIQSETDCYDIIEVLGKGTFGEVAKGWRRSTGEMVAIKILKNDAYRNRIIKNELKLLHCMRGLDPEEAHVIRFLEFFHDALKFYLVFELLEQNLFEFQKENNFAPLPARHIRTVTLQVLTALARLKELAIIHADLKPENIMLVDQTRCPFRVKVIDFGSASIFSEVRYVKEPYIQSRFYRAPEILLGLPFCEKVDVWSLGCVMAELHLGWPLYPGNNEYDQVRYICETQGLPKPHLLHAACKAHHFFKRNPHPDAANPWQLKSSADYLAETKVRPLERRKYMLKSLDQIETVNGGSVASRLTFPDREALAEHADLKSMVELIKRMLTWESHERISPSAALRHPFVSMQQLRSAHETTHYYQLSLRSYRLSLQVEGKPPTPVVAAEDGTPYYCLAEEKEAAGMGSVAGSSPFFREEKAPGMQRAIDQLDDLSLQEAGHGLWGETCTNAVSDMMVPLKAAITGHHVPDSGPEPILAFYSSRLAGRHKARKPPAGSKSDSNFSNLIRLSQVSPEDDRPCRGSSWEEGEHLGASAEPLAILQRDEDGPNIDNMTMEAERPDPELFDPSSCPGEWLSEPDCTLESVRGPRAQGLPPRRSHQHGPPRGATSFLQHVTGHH

[6] = target: Ribosomal protein S6 kinase alpha-4 (Homo sapiens) (UniProt O75676); experiment: Selectivity interaction (KinomeScan (DiscoverX)) EUB0000229b RPS6KA4; conditions: at 10 µM
[7] = target: Tyrosine-protein kinase JAK1 (Homo sapiens, UniProt P23458); experiment: Selectivity interaction (KinomeScan (DiscoverX)) EUB0000045b JAK1
Tyrosine-protein kinase JAK1, sequence (P23458 whole entry): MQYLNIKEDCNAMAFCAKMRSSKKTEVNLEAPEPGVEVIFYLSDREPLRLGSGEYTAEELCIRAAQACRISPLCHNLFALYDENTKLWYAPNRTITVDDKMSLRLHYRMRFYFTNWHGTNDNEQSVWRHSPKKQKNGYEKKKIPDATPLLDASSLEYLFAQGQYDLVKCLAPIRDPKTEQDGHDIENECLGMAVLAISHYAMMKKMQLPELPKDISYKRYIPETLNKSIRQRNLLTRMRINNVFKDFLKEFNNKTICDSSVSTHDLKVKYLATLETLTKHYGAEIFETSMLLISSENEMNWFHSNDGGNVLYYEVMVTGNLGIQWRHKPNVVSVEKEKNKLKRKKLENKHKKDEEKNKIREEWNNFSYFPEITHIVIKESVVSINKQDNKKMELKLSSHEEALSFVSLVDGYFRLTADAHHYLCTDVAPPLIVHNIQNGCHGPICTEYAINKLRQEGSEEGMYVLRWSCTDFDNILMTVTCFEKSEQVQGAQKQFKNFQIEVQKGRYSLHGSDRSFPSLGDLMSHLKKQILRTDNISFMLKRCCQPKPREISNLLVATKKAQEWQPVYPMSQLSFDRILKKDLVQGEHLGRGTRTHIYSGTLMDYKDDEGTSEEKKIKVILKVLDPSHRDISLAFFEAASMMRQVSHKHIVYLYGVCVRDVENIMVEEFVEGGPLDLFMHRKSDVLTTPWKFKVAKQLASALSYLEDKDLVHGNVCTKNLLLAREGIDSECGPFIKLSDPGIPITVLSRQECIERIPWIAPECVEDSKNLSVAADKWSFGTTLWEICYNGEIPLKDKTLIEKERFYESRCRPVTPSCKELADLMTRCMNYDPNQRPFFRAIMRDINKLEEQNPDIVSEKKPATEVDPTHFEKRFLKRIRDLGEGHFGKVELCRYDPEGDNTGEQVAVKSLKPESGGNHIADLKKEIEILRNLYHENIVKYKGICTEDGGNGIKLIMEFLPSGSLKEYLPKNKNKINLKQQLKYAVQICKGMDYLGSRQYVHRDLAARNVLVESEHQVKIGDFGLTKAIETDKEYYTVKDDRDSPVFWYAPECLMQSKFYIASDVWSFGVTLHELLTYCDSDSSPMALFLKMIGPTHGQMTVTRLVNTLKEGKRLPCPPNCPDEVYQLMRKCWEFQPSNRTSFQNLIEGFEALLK

[8] = target: T3, Megakaryocyte-associated tyrosine-protein kinase (Homo sapiens) (UniProt P42679); experiment: Selectivity interaction (KinomeScan (DiscoverX)) EUB0001619a MATK; conditions: at 1 µM
T3 sequence (whole entry): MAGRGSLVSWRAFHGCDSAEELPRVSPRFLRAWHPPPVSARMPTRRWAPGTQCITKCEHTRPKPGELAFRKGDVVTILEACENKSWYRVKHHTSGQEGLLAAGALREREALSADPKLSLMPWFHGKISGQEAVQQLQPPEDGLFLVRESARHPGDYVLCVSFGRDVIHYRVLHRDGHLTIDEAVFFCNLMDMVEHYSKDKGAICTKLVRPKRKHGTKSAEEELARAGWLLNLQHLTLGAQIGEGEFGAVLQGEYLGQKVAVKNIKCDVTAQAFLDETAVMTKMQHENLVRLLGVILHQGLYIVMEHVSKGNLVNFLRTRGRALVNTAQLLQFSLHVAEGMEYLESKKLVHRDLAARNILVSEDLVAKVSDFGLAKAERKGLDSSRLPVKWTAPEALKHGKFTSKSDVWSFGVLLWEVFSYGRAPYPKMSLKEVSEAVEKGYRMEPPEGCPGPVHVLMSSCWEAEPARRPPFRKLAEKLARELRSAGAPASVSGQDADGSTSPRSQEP

[9] = target: STE20-like serine/threonine-protein kinase (Homo sapiens, UniProt Q9H2G2); experiment: Selectivity interaction (KinomeScan (DiscoverX)) EUB0000618a SLK; conditions: at 10 µM
[10] = target: Tyrosine-protein kinase JAK2 (Homo sapiens, UniProt O60674); experiment: Selectivity interaction (KinomeScan (DiscoverX)) EUB0000618a JAK2; conditions: at 10 µM
Tyrosine-protein kinase JAK2, sequence (O60674 whole entry): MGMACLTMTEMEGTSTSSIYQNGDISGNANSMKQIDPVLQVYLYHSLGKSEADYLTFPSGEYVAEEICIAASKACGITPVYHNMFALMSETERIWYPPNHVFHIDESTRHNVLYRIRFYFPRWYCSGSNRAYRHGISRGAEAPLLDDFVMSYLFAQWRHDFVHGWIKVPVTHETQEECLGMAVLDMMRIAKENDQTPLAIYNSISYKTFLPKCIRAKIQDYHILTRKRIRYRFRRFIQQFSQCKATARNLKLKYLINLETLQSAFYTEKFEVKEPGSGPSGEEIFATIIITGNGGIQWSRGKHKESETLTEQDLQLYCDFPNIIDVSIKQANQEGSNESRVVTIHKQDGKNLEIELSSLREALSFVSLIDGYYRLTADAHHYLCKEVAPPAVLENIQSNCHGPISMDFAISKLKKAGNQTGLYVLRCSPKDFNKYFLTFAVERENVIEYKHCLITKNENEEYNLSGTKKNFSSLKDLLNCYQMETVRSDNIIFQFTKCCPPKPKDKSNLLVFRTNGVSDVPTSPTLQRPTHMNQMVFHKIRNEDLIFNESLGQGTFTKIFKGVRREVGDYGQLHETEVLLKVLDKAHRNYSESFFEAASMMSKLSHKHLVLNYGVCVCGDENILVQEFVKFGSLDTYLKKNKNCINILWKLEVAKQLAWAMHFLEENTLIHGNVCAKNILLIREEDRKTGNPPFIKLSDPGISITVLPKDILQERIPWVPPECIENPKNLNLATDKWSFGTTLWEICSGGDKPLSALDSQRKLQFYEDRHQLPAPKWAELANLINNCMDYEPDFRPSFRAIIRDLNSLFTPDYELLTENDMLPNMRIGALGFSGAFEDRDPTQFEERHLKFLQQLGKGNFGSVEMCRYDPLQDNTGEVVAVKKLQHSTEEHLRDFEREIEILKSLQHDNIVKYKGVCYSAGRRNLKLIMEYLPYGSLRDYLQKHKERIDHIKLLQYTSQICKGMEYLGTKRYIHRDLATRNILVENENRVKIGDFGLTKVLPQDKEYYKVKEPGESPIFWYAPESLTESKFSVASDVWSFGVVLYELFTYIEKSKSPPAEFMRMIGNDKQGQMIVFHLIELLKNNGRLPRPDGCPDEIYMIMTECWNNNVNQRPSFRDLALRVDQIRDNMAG

[11] = target: Casein kinase II subunit alpha (Homo sapiens, UniProt P68400); experiment: Selectivity interaction (KinomeScan (DiscoverX)) EUB0000607a CSNK2A1; conditions: at 10 µM
Casein kinase II subunit alpha, sequence (P68400 whole entry, looked up, canonical isoform): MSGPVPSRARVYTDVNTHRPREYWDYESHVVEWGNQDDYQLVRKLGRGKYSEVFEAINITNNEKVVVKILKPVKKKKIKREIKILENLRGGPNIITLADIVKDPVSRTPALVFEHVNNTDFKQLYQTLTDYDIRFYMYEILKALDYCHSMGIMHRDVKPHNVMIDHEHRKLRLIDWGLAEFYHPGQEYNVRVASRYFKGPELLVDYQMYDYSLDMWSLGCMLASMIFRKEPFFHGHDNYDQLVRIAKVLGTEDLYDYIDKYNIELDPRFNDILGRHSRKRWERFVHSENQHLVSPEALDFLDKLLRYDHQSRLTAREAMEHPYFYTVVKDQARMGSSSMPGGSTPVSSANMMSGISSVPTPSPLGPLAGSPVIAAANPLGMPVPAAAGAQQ

[12] = tested on: Phosphatidylinositol 4,5-bisphosphate 3-kinase catalytic subunit alpha isoform (Homo sapiens), P42336 [H1047L]; conditions: at 10 µM
Phosphatidylinositol 4,5-bisphosphate 3-kinase catalytic subunit alpha isoform (Homo sapiens), P42336 [H1047L], sequence (P42336 whole entry H1047L, canonical isoform): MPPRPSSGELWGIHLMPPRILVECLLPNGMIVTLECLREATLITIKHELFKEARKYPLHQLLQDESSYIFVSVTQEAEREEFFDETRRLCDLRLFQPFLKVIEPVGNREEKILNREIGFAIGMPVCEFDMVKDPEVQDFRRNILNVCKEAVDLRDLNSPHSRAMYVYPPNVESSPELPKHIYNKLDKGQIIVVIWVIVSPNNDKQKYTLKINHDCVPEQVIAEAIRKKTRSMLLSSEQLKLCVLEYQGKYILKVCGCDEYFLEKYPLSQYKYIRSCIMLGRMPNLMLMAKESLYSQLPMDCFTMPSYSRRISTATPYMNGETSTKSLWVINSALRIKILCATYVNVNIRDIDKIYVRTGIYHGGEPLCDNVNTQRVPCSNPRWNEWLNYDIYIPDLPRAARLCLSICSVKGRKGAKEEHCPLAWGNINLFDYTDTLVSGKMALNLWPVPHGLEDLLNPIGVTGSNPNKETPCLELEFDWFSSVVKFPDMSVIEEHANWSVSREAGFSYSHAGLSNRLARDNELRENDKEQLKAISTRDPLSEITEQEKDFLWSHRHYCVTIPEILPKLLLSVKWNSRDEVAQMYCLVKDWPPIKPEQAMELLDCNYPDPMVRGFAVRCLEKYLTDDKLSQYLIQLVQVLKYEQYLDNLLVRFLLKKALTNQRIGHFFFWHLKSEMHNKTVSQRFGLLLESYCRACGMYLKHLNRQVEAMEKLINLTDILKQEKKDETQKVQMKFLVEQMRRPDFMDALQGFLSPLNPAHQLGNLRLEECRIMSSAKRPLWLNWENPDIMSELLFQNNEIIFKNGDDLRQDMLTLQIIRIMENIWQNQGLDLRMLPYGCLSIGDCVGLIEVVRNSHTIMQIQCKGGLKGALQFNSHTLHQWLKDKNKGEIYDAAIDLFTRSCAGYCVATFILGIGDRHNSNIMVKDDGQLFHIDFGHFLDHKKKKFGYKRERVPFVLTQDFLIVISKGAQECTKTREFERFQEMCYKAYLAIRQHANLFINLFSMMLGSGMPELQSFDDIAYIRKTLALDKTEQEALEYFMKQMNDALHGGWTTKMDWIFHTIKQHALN

Dual specificity tyrosine-phosphorylation-regulated kinase 1B, sequence (Q9Y463 whole entry, looked up): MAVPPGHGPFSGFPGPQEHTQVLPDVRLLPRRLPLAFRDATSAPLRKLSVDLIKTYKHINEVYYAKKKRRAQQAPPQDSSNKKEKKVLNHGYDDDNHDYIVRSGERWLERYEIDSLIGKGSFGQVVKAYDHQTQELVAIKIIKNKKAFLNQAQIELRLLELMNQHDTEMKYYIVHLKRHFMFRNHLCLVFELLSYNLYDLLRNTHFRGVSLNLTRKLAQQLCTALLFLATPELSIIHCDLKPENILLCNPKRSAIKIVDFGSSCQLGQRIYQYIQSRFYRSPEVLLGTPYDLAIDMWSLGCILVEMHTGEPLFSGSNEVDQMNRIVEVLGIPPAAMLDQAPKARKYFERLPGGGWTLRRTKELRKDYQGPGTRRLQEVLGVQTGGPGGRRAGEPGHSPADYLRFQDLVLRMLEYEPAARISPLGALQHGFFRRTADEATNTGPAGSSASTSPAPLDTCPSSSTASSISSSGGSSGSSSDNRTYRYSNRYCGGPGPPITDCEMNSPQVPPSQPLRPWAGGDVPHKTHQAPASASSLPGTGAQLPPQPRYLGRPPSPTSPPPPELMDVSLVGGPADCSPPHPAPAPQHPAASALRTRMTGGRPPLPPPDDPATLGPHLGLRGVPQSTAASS

SMILES: COc1cc(Nc2nc(C)cc(-c3cnn4nc(OC)ccc34)n2)cc(C(F)(F)F)c1
% of control [1]: 100%

% of inhibition [2]: 14%
SMILES: CC[C@@H]1[C@H](F)C(=O)N[C@@H]1COc1nccc2cc(C(N)=O)c(OC)cc12 [ZIMLOVISERTIB]

dTM [3]: -0.53 K
SMILES: Cc1cc(CN)cc(C)c1-c1ncn(C)c1-c1cncn1C

% of inhibition [4]: -112%
% of control [5]: 6.45%
SMILES: Cn1cc(-n2cnc3c(NCc4nc5cc(Cl)c(Cl)cc5[nH]4)nc(N4CCOCC4)nc32)cn1

SMILES: COc1cc(N(C)c2ccnc3ccc(C(F)(F)F)cc23)cc(OC)c1OC
% binding [6]: 75%

SMILES: C=CC(=O)Nc1cc(-n2c(=O)ccc3cnc4ccc(-c5ccc(NS(C)(=O)=O)cc5)cc4c32)ccc1C
% of control ([7]; at 1 µM): 87%
% of control ([7]; at 10 µM): 76%

SMILES: N#Cc1cccc(-c2c[nH]c3ncnc(N4CCOCC4)c23)c1
% of control [8]: 82%

SMILES: O[C@H]1CC[C@H](Nc2ncc3nc(Nc4c(F)cc(F)cc4F)n([C@H]4CCOC4)c3n2)CC1
% of control [9]: 88%
% of control [10]: 97%

SMILES: CNC(=O)Nc1ccc(-c2nc(N3CC4CCC(C3)O4)c3cnn(C4CCC5(CC4)OCCO5)c3n2)cc1
% of control [11]: 80%
% of control [12]: 15%
